Assay results published in patent US20070232601A1, “Vla-4 Inhibitor” (priority 2004, published 2007).
pKi: −log10 of the molar value.

What was measured:
[1] = Dispersibility test in Japanese Pharmacopoeia First and Second Solution; assay type: physicochemical; details: for Dispersibility in Japanese Pharmacopoeia First Solution: JP1, pH 1.2; for Dispersibility in Japanese Pharmacopoeia Second Solution: JP2, pH 6.8
Protocol: Dispersibility of a test substance in Japanese Pharmacopoeia First Solution (JP1, pH 1.2) and Japanese Pharmacopoeia Second Solution (JP2, pH 6.8) was evaluated.

[2] = molecular target: T1, hα4 and β1 integrins (VLA-4) (Homo sapiens, UniProt P05556+P13612); assay: In vitro evaluation: inhibition of binding of CHO cells expressing hα4 and β1 integrins to Eu3+-hVCAM-1 D1D7-IgG; details: ligand Eu3+-hVCAM-1 D1D7-IgG 2 nM, Ki calculated from IC50
T1 construct: expressed in transfected cells; host or cells: CHO cells
T1 sequence (P13612 34-1032): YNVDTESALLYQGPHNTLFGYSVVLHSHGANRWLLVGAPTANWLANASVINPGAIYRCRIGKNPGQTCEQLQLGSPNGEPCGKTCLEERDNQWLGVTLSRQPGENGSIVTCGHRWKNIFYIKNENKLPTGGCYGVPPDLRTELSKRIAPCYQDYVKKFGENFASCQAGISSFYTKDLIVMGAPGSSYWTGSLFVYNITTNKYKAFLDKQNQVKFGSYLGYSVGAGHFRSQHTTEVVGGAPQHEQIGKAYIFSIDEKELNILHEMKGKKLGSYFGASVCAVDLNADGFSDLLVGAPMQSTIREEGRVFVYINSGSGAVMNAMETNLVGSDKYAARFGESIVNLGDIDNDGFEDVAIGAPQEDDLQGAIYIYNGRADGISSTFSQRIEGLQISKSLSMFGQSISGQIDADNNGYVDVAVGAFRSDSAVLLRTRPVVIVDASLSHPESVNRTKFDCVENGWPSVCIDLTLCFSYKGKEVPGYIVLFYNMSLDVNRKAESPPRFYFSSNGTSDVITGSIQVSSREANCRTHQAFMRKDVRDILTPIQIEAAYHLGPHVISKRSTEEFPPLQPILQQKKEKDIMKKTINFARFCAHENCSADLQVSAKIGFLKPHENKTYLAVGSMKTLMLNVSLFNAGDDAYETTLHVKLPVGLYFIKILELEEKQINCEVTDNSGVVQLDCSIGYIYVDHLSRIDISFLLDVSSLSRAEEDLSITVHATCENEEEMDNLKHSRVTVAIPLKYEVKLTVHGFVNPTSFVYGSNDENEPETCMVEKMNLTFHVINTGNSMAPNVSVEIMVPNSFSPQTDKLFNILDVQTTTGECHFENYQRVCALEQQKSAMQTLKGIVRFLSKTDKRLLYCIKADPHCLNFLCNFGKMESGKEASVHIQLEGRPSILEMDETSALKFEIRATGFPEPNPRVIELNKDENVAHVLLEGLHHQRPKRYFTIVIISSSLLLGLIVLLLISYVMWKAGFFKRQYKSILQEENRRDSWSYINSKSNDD
T1 sequence (P05556 21-798): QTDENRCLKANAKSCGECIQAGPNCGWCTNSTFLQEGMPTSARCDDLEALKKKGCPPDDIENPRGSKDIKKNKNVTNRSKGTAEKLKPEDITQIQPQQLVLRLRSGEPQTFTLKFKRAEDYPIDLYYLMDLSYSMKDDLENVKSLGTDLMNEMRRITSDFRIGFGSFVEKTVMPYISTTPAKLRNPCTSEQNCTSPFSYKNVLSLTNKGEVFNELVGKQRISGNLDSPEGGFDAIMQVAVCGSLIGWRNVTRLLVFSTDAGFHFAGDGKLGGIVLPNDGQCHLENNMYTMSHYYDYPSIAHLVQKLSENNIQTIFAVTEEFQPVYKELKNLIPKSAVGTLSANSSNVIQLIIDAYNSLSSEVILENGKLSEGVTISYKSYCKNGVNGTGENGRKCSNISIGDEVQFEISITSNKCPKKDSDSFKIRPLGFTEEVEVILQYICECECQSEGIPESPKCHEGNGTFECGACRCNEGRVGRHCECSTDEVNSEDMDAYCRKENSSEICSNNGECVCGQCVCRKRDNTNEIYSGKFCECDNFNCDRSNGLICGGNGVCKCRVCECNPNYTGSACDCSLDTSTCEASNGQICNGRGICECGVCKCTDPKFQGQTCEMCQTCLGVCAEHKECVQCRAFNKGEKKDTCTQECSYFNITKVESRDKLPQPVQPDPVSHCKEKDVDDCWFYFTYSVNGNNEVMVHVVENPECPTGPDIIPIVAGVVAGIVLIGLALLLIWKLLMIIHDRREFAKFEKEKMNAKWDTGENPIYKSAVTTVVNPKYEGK
Summary of the method: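 CHO cells stably expressing hα4β1 were cultured 2 days, then incubated 1 h at room temperature with Eu3+-hVCAM-1 D1D7-IgG (added as 2 nM solution) and compound in HEPES pH 7.5 with Ca2+, Mg2+ and 4 mM Mn2+, ± 6% human serum albumin. Bound europium was read by time-resolved fluorescence; IC50 was converted to Ki using Scatchard-derived Kd.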

Compound | Dispersibility in Japanese Pharmacopoeia First Solution [1] [µg/mL] | Dispersibility in Japanese Pharmacopoeia Second Solution [1] [µg/mL] | pKi [2]
CCOC1CN([C@H]2C[C@@H](c3ncc(CCC(=O)O)s3)N(C(=O)Cc3cc(Cl)c(NC(=O)c4csc5ccccc45)cc3Cl)C2)C1 [Example 72, 3-[2-[1-[4-(3-Benzo[b]thiophenylcarbonylamino)-2,5-dichlorophenylacetyl]-(4S)-1-(3-ethoxy)azetidinyl-(2S)-pyrrolidinyl]-5-thiazolyl]propionic acid] | 960 | 960 | 9.17
Cn1cc(C(=O)Nc2cc(F)c(CC(=O)N3C[C@@H](N4CCC(F)(F)CC4)C[C@H]3c3ncc(CCC(=O)O)s3)cc2Cl)c2ccccc21 [Example 73, 3-[2-[1-[5-Chloro-2-fluoro-4-(1-methyl-3-indolylcarbonylamino)phenylacetyl]-(4S)-[1-(4,4-difluoro)piperidinyl]-(2S)-pyrrolidinyl]-5-thiazolyl]propionic acid] | 230 | 290 | 8.96
Cn1cc(C(=O)Nc2cc(Cl)c(CC(=O)N3C[C@@H](N4CCC(F)(F)CC4)C[C@H]3c3ncc(CCC(=O)O)s3)cc2Cl)c2ccccc21 [Example 74, 3-[2-[1-[2,5-Dichloro-4-(1-methyl-3-indolylcarbonylamino)phenylacetyl]-(4S)-[1-(4,4-difluoro)piperidinyl]-(2S)-pyrrolidinyl]-5-thiazolyl]propionic acid] | 130 | 150 | 8.92
O=C(O)CCc1cnc([C@@H]2C[C@H](N3CCC(F)(F)CC3)CN2C(=O)Cc2cc(Cl)c(NC(=O)c3csc4ccccc34)cc2F)s1 [Example 75, 3-[2-[1-[4-(3-Benzo[b]thiophenylcarbonylamino)-5-chloro-2-fluorophenylacetyl]-(4S)-[1-(4,4-difluoro)piperidinyl]-(2S)-pyrrolidinyl]-5-thiazolyl]propionic acid] | 220 | 160 | 9.33
O=C(O)CCc1cnc([C@@H]2C[C@H](N3CCC(F)(F)CC3)CN2C(=O)Cc2cc(Cl)c(NC(=O)c3csc4ccccc34)cc2Cl)s1 [Example 76] | 110 | 83 | 9.10
O=C(O)CCc1cnc([C@@H]2C[C@H](N3CCC(F)(F)CC3)CN2C(=O)Cc2cc(Cl)c(NC(=O)c3coc4ccccc34)cc2F)s1 [Example 77, 3-[2-[1-[4-(3-Benzo[b]furanylcarbonylamino)-5-chloro-2-fluorophenylacetyl]-(4S)-[1-(4,4-difluoro)piperidinyl]-(2S)-pyrrolidinyl]-5-thiazolyl]propionic acid] | 430 | 380 | 9.14
O=C(O)CCc1cnc([C@@H]2C[C@H](N3CCC(F)(F)CC3)CN2C(=O)Cc2cc(Cl)c(NC(=O)c3coc4ccccc34)cc2Cl)s1 [Example 78, 3-[2-[1-[4-(3-Benzo[b]furanylcarbonylamino)-2,5-dichlorophenylacetyl]-(4S)-[1-(4,4-difluoro)piperidinyl]-(2S)-pyrrolidinyl]-5-thiazolyl]propionic acid] | 260 | 230 | 8.92
Cn1cc(C(=O)Nc2cc(F)c(CC(=O)N3C[C@@H](N4CCN(CC(F)(F)F)CC4)C[C@H]3c3ncc(CCC(=O)O)s3)cc2Cl)c2ccccc21 [Example 79, 3-[2-[1-[5-Chloro-2-fluoro-4-(1-methyl-3-indolylcarbonylamino)phenylacetyl]-(4S)-[1-(4-(2,2,2-trifluoro)ethyl)piperazinyl]-(2S)-pyrrolidinyl]-5-thiazolyl]propionic acid] | 250 | 670 | 8.82
Cn1cc(C(=O)Nc2cc(Cl)c(CC(=O)N3C[C@@H](N4CCN(CC(F)(F)F)CC4)C[C@H]3c3ncc(CCC(=O)O)s3)cc2Cl)c2ccccc21 [Example 80, 3-[2-[1-[2,5-Dichloro-4-(1-methyl-3-indolylcarbonylamino)phenylacetyl]-(4S)-[1-(4-(2,2,2-trifluoro)ethyl)piperazinyl]-(2S)-pyrrolidinyl]-5-thiazolyl]propionic acid] | 110 | 730 | 8.70
O=C(O)CCc1cnc([C@@H]2C[C@H](N3CCN(CC(F)(F)F)CC3)CN2C(=O)Cc2cc(Cl)c(NC(=O)c3csc4ccccc34)cc2F)s1 [Example 81, 3-[2-[1-[4-(3-Benzo[b]thiophenylcarbonylamino)-5-chloro-2-fluorophenylacetyl]-(4S)-[1-(4-(2,2,2-trifluoro)ethyl)piperazinyl]-(2S)-pyrrolidinyl]-5-thiazolyl]propionic acid] | 210 | 680 | 8.89
O=C(O)CCc1cnc([C@@H]2C[C@H](N3CCN(CC(F)(F)F)CC3)CN2C(=O)Cc2cc(Cl)c(NC(=O)c3csc4ccccc34)cc2Cl)s1 [Example 82] | 96 | 320 | 8.89
O=C(O)CCc1cnc([C@@H]2C[C@H](N3CCN(CC(F)(F)F)CC3)CN2C(=O)Cc2cc(Cl)c(NC(=O)c3coc4ccccc34)cc2F)s1 [Example 83] | 540 | 1000 | 8.80
O=C(O)CCc1cnc([C@@H]2C[C@H](N3CCN(CC(F)(F)F)CC3)CN2C(=O)Cc2cc(Cl)c(NC(=O)c3coc4ccccc34)cc2Cl)s1 [Example 84] | 280 | 760 | 8.82
C[C@@H]1CN([C@H]2C[C@@H](c3ncc(CCC(=O)O)s3)N(C(=O)Cc3cc(Cl)c(NC(=O)c4cn(C)c5ccccc45)cc3F)C2)C[C@H](C)O1 [Example 85, 3-[2-[1-[5-Chloro-2-fluoro-4-(1-methyl-3-indolylcarbonylamino)phenylacetyl]-(4S)-[4-(cis-2,6-dimethyl)morpholinyl]-(2S)-pyrrolidinyl]-5-thiazolyl]propionic acid] | 1200 | 1300 | 9.00
C[C@@H]1CN([C@H]2C[C@@H](c3ncc(CCC(=O)O)s3)N(C(=O)Cc3cc(Cl)c(NC(=O)c4cn(C)c5ccccc45)cc3Cl)C2)C[C@H](C)O1 [Example 86, 3-[2-[1-[2,5-Dichloro-4-(1-methyl-3-indolylcarbonylamino)phenylacetyl]-(4S)-[4-(cis-2,6-dimethyl)morpholinyl]-(2S)-pyrrolidinyl]-5-thiazolyl]propionic acid] | 1200 | 1400 | 9.00
C[C@@H]1CN([C@H]2C[C@@H](c3ncc(CCC(=O)O)s3)N(C(=O)Cc3cc(Cl)c(NC(=O)c4csc5ccccc45)cc3F)C2)C[C@H](C)O1 [Example 87, 3-[2-[1-[4-(3-Benzo[b]thiophenylcarbonylamino)-5-chloro-2-fluorophenylacetyl]-(4S)-[4-(cis-2,6-dimethyl)morpholinyl]-(2S)-pyrrolidinyl]-5-thiazolyl]propionic acid] | 1200 | 1300 | 9.00
C[C@@H]1CN([C@H]2C[C@@H](c3ncc(CCC(=O)O)s3)N(C(=O)Cc3cc(Cl)c(NC(=O)c4csc5ccccc45)cc3Cl)C2)C[C@H](C)O1 [Example 88, 3-[2-[1-[4-(3-Benzo[b]thiophenylcarbonylamino)-2,5-dichlorophenylacetyl]-(4S)-[4-(cis-2,6-dimethyl)morpholinyl]-(2S)-pyrrolidinyl]-5-thiazolyl]propionic acid] | 1200 | 1400 | 8.92
C[C@@H]1CN([C@H]2C[C@@H](c3ncc(CCC(=O)O)s3)N(C(=O)Cc3cc(Cl)c(NC(=O)c4coc5ccccc45)cc3F)C2)C[C@H](C)O1 [Example 89] | 1100 | 1300 | 8.89
C[C@@H]1CN([C@H]2C[C@@H](c3ncc(CCC(=O)O)s3)N(C(=O)Cc3cc(Cl)c(NC(=O)c4coc5ccccc45)cc3Cl)C2)C[C@H](C)O1 [Example 90] | 1100 | 1300 | 8.89
CO[C@H]1C[C@@H](c2ncc(CCC(=O)O)s2)N(C(=O)Cc2ccc(Nc3nc4ccccc4o3)c(Cl)c2)C1 [Example 107, 3-[2-[1-[4-(2-Benzoxazolyl)amino-3-chlorophenyl]acetyl-(4S)-methoxy-(2S)-pyrrolidinyl]-5-thiazolyl]propionic acid] | 700 | 700 | 8.04
CO[C@H]1C[C@@H](c2ncc(CCC(=O)O)s2)N(C(=O)Cc2cc(Cl)c(Nc3nc4ccccc4o3)cc2F)C1 [Example 108] | 730 | 730 | 7.72
